Source: paper PMC10385743
Where “and” joins values, the source holds several entries; their conditions need not be identical. Identical values can stand only once.

Legend:
[1] = system: HCV GT 3a (strain S52) subgenomic replicon; test: microbe, parasite or virus in culture; type: cell-based, hepatitis C virus; conditions: 72 h; luciferase; mean ± SD; read-out: Huh7.5-3a(S52) (HCV Replicon 3a) EC50
[2] = system: HCV GT 4a (strain ED43) subgenomic replicon; test: microbe, parasite or virus in culture; type: cell-based, hepatitis C virus; conditions: 72 h; luciferase; mean ± SD; read-out: Huh7.5-4a(ED43) (HCV Replicon 4a) EC50
[3] = system: YFV (strain 17D) subgenomic replicon; test: microbe, parasite or virus in culture; type: cell-based, yellow fever virus; conditions: read-out: Huh7-YF (YFV Replicon 17D) EC50; 72 h; luciferase; mean ± SD
[4] = system: DENV serotype 2 (strain 16681) subgenomic replicon; test: microbe, parasite or virus in culture; type: cell-based, dengue virus; conditions: 72 h; luciferase; mean ± SD; read-out: Huh7-D2 (DENV-2 Replicon) EC50
[5] = system: bloodstream form T. b. brucei (strain 221)
[6] = system: T. cruzi (CL Brener strain) epimastigotes; conditions: read-out: T. cruzi EC50; epimastigotes; mean of triplicate experiments ± SEM
[7] = system: rat skeletal myoblast L6 cells; test: Cytotoxicity against cultured L6 cells (resazurin); conditions: read-out: L6 Cells CC50; mean of triplicate experiments ± SEM
Huh5-2 cells = test: Cytotoxicity in Huh5-2 replicon cells (intracellular ATP levels); conditions: read-out: Huh5-2 (HCV Replicon 1b) CC50; 72 h; ATP levels; mean ± SD; * highest concentration used 10 μΜ

CC1CCC2(NC(=O)N(CC(=O)NO)C2=O)c2ccccc21 [Compound 35, Ν-(Hydroxy)-2-((4R,4′R)/(4S,4′S)-4′-methyl-2,5-dioxo-3′,4′-dihydro-2′H-spiro[imidazolidine-4,1′-naphthalene]-1-yl)acetamide]
EC50 [1]: 0.77 ± 0.03 µM | EC50 [2]: 0.41 ± 0.02 µM | EC50 [3]: > 10 µM | EC50 [4]: > 10 µM | EC50 ([5]; read-out: T. brucei EC50, cultured bloodstream form, mean of triplicate experiments ± SEM): 0.56 ± 0.07 µM | EC90 ([5]; read-out: T. brucei EC90, cultured bloodstream form, mean of triplicate experiments ± SEM): 0.86 ± 0.19 µM | SI (CC50 for L6 cells / EC50 for T. brucei) ([5]; selectivity index): 400 | EC50 [6]: > 30 µM | CC50 [7]: > 200 µM and 224 µM | CC50 (Huh5-2 cells): > 200 µM
